Columns and labels:
PTP1B = target: T1, PTP1B (Homo sapiens, UniProt P18031); test: PTP1B inhibitory assay (pNPP substrate); type: biochemical; conditions: for IC50: pNPP 1 mM, 37 °C, Mean ± SD (n = 4), read-out: IC50 against PTP1B
T1 sequence (P18031 1-435): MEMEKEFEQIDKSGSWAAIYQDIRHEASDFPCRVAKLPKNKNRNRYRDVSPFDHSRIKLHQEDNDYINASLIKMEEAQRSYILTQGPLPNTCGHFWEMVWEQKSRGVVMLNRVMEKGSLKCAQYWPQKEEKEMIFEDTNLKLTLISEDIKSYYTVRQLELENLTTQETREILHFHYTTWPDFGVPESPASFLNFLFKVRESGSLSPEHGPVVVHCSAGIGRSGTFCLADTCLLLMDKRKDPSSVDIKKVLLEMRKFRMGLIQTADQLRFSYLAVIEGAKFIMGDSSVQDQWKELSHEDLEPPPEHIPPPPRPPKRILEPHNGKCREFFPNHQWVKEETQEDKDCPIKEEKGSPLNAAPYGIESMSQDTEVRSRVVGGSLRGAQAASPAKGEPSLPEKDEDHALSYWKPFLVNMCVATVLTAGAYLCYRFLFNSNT
Method: The tested compounds at designated concentrations were solubilized in DMSO, and 2 μL samples was added to 96-well clear polystyrene plate. […] Then, 78 μL of an assay buffer (25 mM Hepes, 150 mM sodium chloride (NaCl), 0.1% bovine serum albumin (BSA), 3 mM dithiothreitol, 1 mM ethylenediaminetetraacetic acid) and 10 μL of the PTP1B (10 μg/mL) was added and incubated for 10 min at 37 °C. The screening was initiated by adding 10 μL p-nitrophenyl phosphate (pNPP), and the catalysis of pNPP (1 mM) was continuously monitored on SpectraMax 340 microplate reader (Molecular Devices, Sunnyvale, CA, USA) at 405 nm for 20 min at 37 °C. The slope of the linear portion of the kinetic curve generated from each well was used to determine the activity of PTP1B. The inhibition effect of the compound was represented by the percentage of the slope of the linear portion of its kinetic curve relative to that of the negative control (DMSO). The IC50 was calculated with Prism 8 software (Graphpad, San Diego, CA, USA) from the non-linear curve fitting of the percentage of inhibition (%inhibition) versus the inhibitor concentration [I] by using the following equation: %Inhibition = 100/(1 + [IC50/[I]] ^k), where k is the Hill coefficient.

IR HepG2 cells = test: Glucose consumed in insulin resistance model of HepG2 cells; type: cell-based; conditions: high glucose and high insulin stimulated HepG2; 24 h treatment
Method: HepG2 cells (Cell Bank of Chinese Academy of Sciences, Shanghai, China) were seeded in 96-well plates in normal Dulbecco’s Modified Eagle’ Medium (DMEM, 5.6 mM glucose) supplemented with 10% fetal bovine serum (FBS). The density of the cells in each plate was 1 × 10^4 cells/mL. The original medium was removed when the cells became adherent. For the control group, the medium was replaced with […]. The model of insulin resistance was established by stimulation with high glucose DMEM (30 mM glucose) with 10^−7 mol/L insulin for 48 h. Then, the cells were treated with drug-free or drug-containing DMEM (5.6 mM glucose) containing 0.2% BSA and […] 1 × 10^−9 mol/L insulin for 24 h. Glucose consumption was detected with the glucose oxidase method using a glucose assay kit (Cat#BC2500, Solarbio, Beijing, China).

RIN-m5f cell line = test: Cell proliferation assay (CCK-8), RIN-m5f; type: cell-based; conditions: CCK-8, 48 h
Method: The cytotoxic effect of the synthesized butenolides on RIN-m5f (CRL-11605, American Type Culture Collection, Manassas, VA, USA) and HepG2 cells was determined with a Cell Counting Kit 8 (CCK-8) kit (Dojindo, Tokyo, Japan). Cells were seeded into 96-well plates in DMEM with 10% FBS in a volume of 100 µL per well and cultured overnight at 37 °C. The density of the cells in each plate was 1 × 10^4 cells/mL. According to the manufacturer’s protocol, after treatment with DMSO or varying concentrations of BLs for 48 h, 10 µL of CCK-8 solution was added to each well and cells were incubated for 2 h at 37 °C. Measure the absorbance at 450 nm of each well on a SpectraMax 340 microplate reader.

α-glucosidase = target: α-glucosidase; set-up: method as in earlier work; conditions: cited from earlier work
[1] = set-up: method as in doi:10.1007/s00044-013-0659-4; conditions: read-out: IC50 antioxidant activities; cited from earlier work

Compound	IC50 (PTP1B) [µM]	PTP1B inhibitory activity (in words) (PTP1B)	hypoglycemic effect (glucose consumed / glucose uptake) in IR HepG2 cells (IR HepG2 cells)	cytotoxicity to RIN-m5f cell line (proliferation) (RIN-m5f cell line)	IC50 (α-glucosidase) [µM]	IC50 [1] [µM]
CC(C)=CCc1cc(C2OC(=O)C(O)=C2c2ccc(O)cc2)ccc1O (stereo not drawn) [BL-2]	133					
CC(C)=CCc1cc(C2OC(=O)C(O)=C2c2ccc(O)cc2)ccc1OCc1ccccc1 (stereo not drawn) [BL-3]		strong PTP1B inhibitory activity	significant hypoglycemic effect	did not affect the proliferation		
COC(=O)[C@]1(Cc2ccc(O)c(CC=C(C)C)c2)OC(=O)C(O)=C1c1ccc(O)cc1 [Butyrolactone I]					52.2	51.4

Now from value to compound, other results behind:

IC50 (PTP1B) [µM]	PTP1B inhibitory activity (in words) (PTP1B)	Compound	hypoglycemic effect (glucose consumed / glucose uptake) in IR HepG2 cells (IR HepG2 cells)	cytotoxicity to RIN-m5f cell line (proliferation) (RIN-m5f cell line)	IC50 (α-glucosidase) [µM]	IC50 [1] [µM]
28.5	strong PTP1B inhibitory activity	COC(=O)C1(c2ccc(OCc3ccccc3)cc2)OC(=O)C(O)=C1c1ccc(O)cc1 (stereo not drawn) [BL-4]				
	strong PTP1B inhibitory activity	O=C1OC(Cc2ccc(OCc3ccccc3)cc2)C(c2ccc(O)cc2)=C1O (stereo not drawn) [BL-5]	significant hypoglycemic effect	did not affect the proliferation		
17.2	strong PTP1B inhibitory activity	CC(C)=CCc1cc(CC2OC(=O)C(O)=C2c2ccc(O)cc2)ccc1OCc1ccccc1 (stereo not drawn) [BL-6]	did not improve the glucose uptake	significant cytotoxicity		
